Our source for the IC50 and EC50 values is ChEMBL document CHEMBL1129799, “Homology modeling of metabotropic glutamate receptors. (mGluRs) structural motifs affecting binding modes and pharmacological profile of mGluR1 agonists and competitive antagonists” (J Med Chem, 1996).

SMILES strings stand for the structures.

In one assay the target is T1, Metabotropic glutamate receptor 1 (Homo sapiens, UniProt Q13255). As to the kind of experiment: Inhibitory concentration for half maximal inhibition of PI hydrolysis (mGluR1a).
T1 sequence (Q13255 whole entry): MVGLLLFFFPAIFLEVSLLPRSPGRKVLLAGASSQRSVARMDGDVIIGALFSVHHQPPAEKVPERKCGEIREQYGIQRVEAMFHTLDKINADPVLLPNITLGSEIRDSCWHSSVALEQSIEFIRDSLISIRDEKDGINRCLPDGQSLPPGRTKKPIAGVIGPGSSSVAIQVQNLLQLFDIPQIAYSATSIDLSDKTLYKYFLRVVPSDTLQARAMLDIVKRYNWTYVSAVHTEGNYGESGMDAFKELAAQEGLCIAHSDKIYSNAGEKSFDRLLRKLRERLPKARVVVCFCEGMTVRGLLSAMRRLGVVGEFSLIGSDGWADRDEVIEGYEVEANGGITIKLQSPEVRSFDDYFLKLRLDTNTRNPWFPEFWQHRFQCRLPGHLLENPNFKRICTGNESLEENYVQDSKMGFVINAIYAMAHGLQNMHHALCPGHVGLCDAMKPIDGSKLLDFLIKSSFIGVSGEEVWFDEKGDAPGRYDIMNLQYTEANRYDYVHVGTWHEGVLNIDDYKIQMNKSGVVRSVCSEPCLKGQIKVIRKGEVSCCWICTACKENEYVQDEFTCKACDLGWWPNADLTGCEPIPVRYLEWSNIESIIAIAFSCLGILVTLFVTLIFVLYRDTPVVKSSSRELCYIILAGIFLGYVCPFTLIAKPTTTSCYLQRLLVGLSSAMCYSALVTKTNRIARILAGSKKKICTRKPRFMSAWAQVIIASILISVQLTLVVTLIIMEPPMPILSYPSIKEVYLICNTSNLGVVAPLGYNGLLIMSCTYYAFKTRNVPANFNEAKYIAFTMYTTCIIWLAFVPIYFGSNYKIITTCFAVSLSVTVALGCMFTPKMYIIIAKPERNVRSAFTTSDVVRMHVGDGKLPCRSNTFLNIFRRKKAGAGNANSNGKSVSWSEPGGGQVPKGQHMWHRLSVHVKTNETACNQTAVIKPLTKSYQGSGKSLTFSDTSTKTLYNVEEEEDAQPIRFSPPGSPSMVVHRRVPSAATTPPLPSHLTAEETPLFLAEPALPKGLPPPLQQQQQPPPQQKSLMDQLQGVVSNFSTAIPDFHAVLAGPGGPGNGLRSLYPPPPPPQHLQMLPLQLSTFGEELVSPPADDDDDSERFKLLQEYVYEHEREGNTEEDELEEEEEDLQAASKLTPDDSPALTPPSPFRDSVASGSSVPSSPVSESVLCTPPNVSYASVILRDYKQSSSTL
`N[C@H](C(=O)O)c1ccc(O)c(C(=O)O)c1`: the IC50 (commonly the concentration at which inhibition is half-maximal) was 290 µM.

The compound `NC1(C(=O)O)CCc2cc(C(=O)O)ccc21` (stereo unspecified) registered an IC50 of 214 µM.

`N[C@H](C(=O)O)c1ccc(C(=O)O)cc1` displayed an IC50 of 65 µM.

For the compound `N[C@H](C(=O)O)c1ccc(C(=O)O)c(O)c1`, 40 µM corresponded to half-maximal inhibition (IC50).

For the next assay, the target named is T1, Metabotropic glutamate receptor 1. As to the kind of experiment: Effective concentration for half maximal stimulation of PI hydrolysis (mGluR1a).
Consider `N[C@H](C(=O)O)c1cccc(O)c1`, for which the response was half-maximal at 68 µM (EC50).

For the compound `N[C@H](C(=O)O)c1cc(=O)[nH]o1` [IBOTENIC ACID], a half-maximal effect (EC50) was put at 6 µM.
